Values of other authors as cited in patent US8883204B2, “Tamper resistant co-extruded dosage form containing an active agent and an adverse agent and process of making same” (Purdue Pharma L.P., priority 2003, dated 2014).

Settings: administered orally

## C[C@H]1[C@H]2Cc3ccc(O)cc3[C@]1(C)CCN2CC1CC1 [cyclazocine]
  duration of action: ~24 h

## O=C1CC[C@@]2(O)[C@H]3Cc4ccc(O)c5c4[C@@]2(CCN3CC2CC2)[C@H]1O5 [naltrexone]
  duration of action: ~24 h
